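Grown in 96-well plates, cells were treated for 48 hours with each compound at five concentrations. Insufficient inhibition: endpoint recorded as highest concentration tested. Abbreviation: GI50, concentration required for 50% inhibition of growth. TGI is the concentration that stops growth completely.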
Key:
Test in all cases: DTP human tumour cell line panel, 48 h
A498 renal = tested on: A498 renal
A549 NSCLC = tested on: A549 NSCLC
ACHN renal = tested on: ACHN renal
BT-549 breast = tested on: BT-549 breast
CAKI-1 renal = tested on: CAKI-1 renal
CCRF-CEM leukemia = tested on: CCRF-CEM leukemia
COLO 205 colon = tested on: COLO 205 colon
DU-145 prostate = tested on: DU-145 prostate
EKVX NSCLC = tested on: EKVX NSCLC
HCC-2998 colon = tested on: HCC-2998 colon
HCT-116 colon = tested on: HCT-116 colon
HCT-15 colon = tested on: HCT-15 colon
HL-60(TB) leukemia = tested on: HL-60(TB) leukemia
HOP-62 NSCLC = tested on: HOP-62 NSCLC
HOP-92 NSCLC = tested on: HOP-92 NSCLC
HS 578T breast = tested on: HS 578T breast
HT29 colon = tested on: HT29 colon
IGROV1 ovarian = tested on: IGROV1 ovarian
K-562 leukemia = tested on: K-562 leukemia
KM12 colon = tested on: KM12 colon
LOX IMVI melanoma = tested on: LOX IMVI melanoma
M14 melanoma = tested on: M14 melanoma
MALME-3M melanoma = tested on: MALME-3M melanoma
MCF7 breast = tested on: MCF7 breast
MDA-MB-231 breast = tested on: MDA-MB-231 breast
MDA-MB-435 = tested on: MDA-MB-435
MOLT-4 leukemia = tested on: MOLT-4 leukemia
NCI-H226 lung = tested on: NCI-H226 lung
NCI-H23 lung = tested on: NCI-H23 lung
NCI-H460 lung = tested on: NCI-H460 lung
NCI-H522 lung = tested on: NCI-H522 lung
NCI/ADR-RES ovarian = tested on: NCI/ADR-RES ovarian
OVCAR-3 ovarian = tested on: OVCAR-3 ovarian
OVCAR-4 ovarian = tested on: OVCAR-4 ovarian
OVCAR-5 ovarian = tested on: OVCAR-5 ovarian
OVCAR-8 ovarian = tested on: OVCAR-8 ovarian
PC-3 prostate = tested on: PC-3 prostate
RPMI-8226 leukemia = tested on: RPMI-8226 leukemia
RXF 393 renal = tested on: RXF 393 renal
SF-268 CNS = tested on: SF-268 CNS
SF-295 CNS = tested on: SF-295 CNS
SF-539 CNS = tested on: SF-539 CNS
SK-MEL-2 melanoma = tested on: SK-MEL-2 melanoma
SK-MEL-28 melanoma = tested on: SK-MEL-28 melanoma
SK-MEL-5 melanoma = tested on: SK-MEL-5 melanoma
SK-OV-3 ovarian = tested on: SK-OV-3 ovarian
SN12C renal = tested on: SN12C renal
SNB-75 CNS = tested on: SNB-75 CNS
SR leukemia = tested on: SR leukemia
SW-620 colon = tested on: SW-620 colon
T-47D breast = tested on: T-47D breast
TK-10 renal = tested on: TK-10 renal
U251 CNS = tested on: U251 CNS
UACC-257 melanoma = tested on: UACC-257 melanoma
UACC-62 melanoma = tested on: UACC-62 melanoma
UO-31 renal = tested on: UO-31 renal

CCCCN1CCN(c2ccc3nc(-c4ccc5nc(-c6ccc(OC)c(OC)c6)[nH]c5c4)[nH]c3c2)CC1
GI50 (A498 renal): 894 nM
TGI (A498 renal): 2360 nM
GI50 (A549 NSCLC): 1170 nM
TGI (A549 NSCLC): 3320 nM
GI50 (ACHN renal): 2270 nM
TGI (ACHN renal): 12400 nM
GI50 (BT-549 breast): 1270 nM
TGI (BT-549 breast): 2690 nM
GI50 (CAKI-1 renal): 490 nM
TGI (CAKI-1 renal): 3980 nM
GI50 (CCRF-CEM leukemia): 434 nM
TGI (CCRF-CEM leukemia): 2050 nM
GI50 (COLO 205 colon): 173 nM
TGI (COLO 205 colon): 1360 nM
GI50 (DU-145 prostate): 754 nM
TGI (DU-145 prostate): 4040 nM
GI50 (EKVX NSCLC): 2140 nM
TGI (EKVX NSCLC): > 100000 nM
GI50 (HCC-2998 colon): 1040 nM
TGI (HCC-2998 colon): 2400 nM
GI50 (HCT-116 colon): 285 nM
TGI (HCT-116 colon): 1450 nM
GI50 (HCT-15 colon): 3290 nM
TGI (HCT-15 colon): 30000 nM
GI50 (HL-60(TB) leukemia): 646 nM
TGI (HL-60(TB) leukemia): 2950 nM
GI50 (HOP-62 NSCLC): 1060 nM
TGI (HOP-62 NSCLC): 5070 nM
GI50 (HOP-92 NSCLC): 1520 nM
TGI (HOP-92 NSCLC): 6640 nM
GI50 (HS 578T breast): 1300 nM
TGI (HS 578T breast): 4310 nM
GI50 (HT29 colon): 389 nM
TGI (HT29 colon): 1980 nM
GI50 (IGROV1 ovarian): 1290 nM
TGI (IGROV1 ovarian): 3390 nM
GI50 (K-562 leukemia): 280 nM
TGI (K-562 leukemia): 1890 nM
GI50 (KM12 colon): 1370 nM
TGI (KM12 colon): 3130 nM
GI50 (LOX IMVI melanoma): 366 nM
TGI (LOX IMVI melanoma): 1310 nM
GI50 (M14 melanoma): 213 nM
TGI (M14 melanoma): 1520 nM
GI50 (MALME-3M melanoma): 73.4 nM
TGI (MALME-3M melanoma): 1270 nM
GI50 (MCF7 breast): 196 nM
TGI (MCF7 breast): 1560 nM
GI50 (MDA-MB-231 breast): 1540 nM
TGI (MDA-MB-231 breast): 3100 nM
GI50 (MDA-MB-435): 599 nM
TGI (MDA-MB-435): 2000 nM
GI50 (MOLT-4 leukemia): 903 nM
TGI (MOLT-4 leukemia): 3840 nM
GI50 (NCI-H226 lung): 1340 nM
TGI (NCI-H226 lung): 2970 nM
GI50 (NCI-H23 lung): 617 nM
TGI (NCI-H23 lung): 2030 nM
GI50 (NCI-H460 lung): 616 nM
TGI (NCI-H460 lung): 1550 nM
GI50 (NCI-H522 lung): 258 nM
TGI (NCI-H522 lung): 1520 nM
GI50 (NCI/ADR-RES ovarian): > 100000 nM
TGI (NCI/ADR-RES ovarian): > 100000 nM
GI50 (OVCAR-3 ovarian): 428 nM
TGI (OVCAR-3 ovarian): 1950 nM
GI50 (OVCAR-4 ovarian): 334 nM
TGI (OVCAR-4 ovarian): 1880 nM
GI50 (OVCAR-5 ovarian): 2320 nM
TGI (OVCAR-5 ovarian): 6090 nM
GI50 (OVCAR-8 ovarian): 435 nM
TGI (OVCAR-8 ovarian): 2170 nM
GI50 (PC-3 prostate): 1160 nM
TGI (PC-3 prostate): 3290 nM
GI50 (RPMI-8226 leukemia): 458 nM
TGI (RPMI-8226 leukemia): 2120 nM
GI50 (RXF 393 renal): 917 nM
TGI (RXF 393 renal): 2150 nM
GI50 (SF-268 CNS): 1350 nM
TGI (SF-268 CNS): 6640 nM
GI50 (SF-295 CNS): 647 nM
TGI (SF-295 CNS): 3540 nM
GI50 (SF-539 CNS): 1220 nM
TGI (SF-539 CNS): 2630 nM
GI50 (SK-MEL-2 melanoma): 1320 nM
TGI (SK-MEL-2 melanoma): 2770 nM
GI50 (SK-MEL-28 melanoma): 857 nM
TGI (SK-MEL-28 melanoma): 2240 nM
GI50 (SK-MEL-5 melanoma): 599 nM
TGI (SK-MEL-5 melanoma): 2130 nM
GI50 (SK-OV-3 ovarian): 1430 nM
TGI (SK-OV-3 ovarian): 6340 nM
GI50 (SN12C renal): 738 nM
TGI (SN12C renal): 3660 nM
GI50 (SNB-75 CNS): 180 nM
TGI (SNB-75 CNS): 3840 nM
GI50 (SR leukemia): 308 nM
TGI (SR leukemia): 1380 nM
GI50 (SW-620 colon): 306 nM
TGI (SW-620 colon): 1760 nM
GI50 (T-47D breast): 399 nM
TGI (T-47D breast): 2850 nM
GI50 (TK-10 renal): 1120 nM
TGI (TK-10 renal): 3440 nM
GI50 (U251 CNS): 1050 nM
TGI (U251 CNS): 2260 nM
GI50 (UACC-257 melanoma): 537 nM
TGI (UACC-257 melanoma): 2390 nM
GI50 (UACC-62 melanoma): 431 nM
TGI (UACC-62 melanoma): 1940 nM
GI50 (UO-31 renal): 8040 nM
TGI (UO-31 renal): > 39900 nM
